Reference: article PMC6192261 (Biochemical and biophysical research communications, 2018)

Each compound was assayed against NgDapB (4-hydroxy-tetrahydrodipicolinate reductase from Neisseria gonorrhoeae) (Neisseria gonorrhoeae, UniProt Q5F5Y7) (assay: isothermal titration calorimetry).
Chain of NgDapB (4-hydroxy-tetrahydrodipicolinate reductase from Neisseria gonorrhoeae) (Q5F5Y7 whole entry): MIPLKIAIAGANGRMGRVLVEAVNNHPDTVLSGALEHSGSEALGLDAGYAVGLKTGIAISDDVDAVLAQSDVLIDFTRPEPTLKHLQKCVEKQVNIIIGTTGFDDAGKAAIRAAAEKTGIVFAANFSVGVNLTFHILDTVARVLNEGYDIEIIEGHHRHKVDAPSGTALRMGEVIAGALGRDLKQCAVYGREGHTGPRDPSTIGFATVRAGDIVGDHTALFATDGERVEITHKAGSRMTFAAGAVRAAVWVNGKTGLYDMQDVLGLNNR
Assay type: binding
In the case of `NC(=O)C1=CN([C@@H]2O[C@H](COP(=O)(O)OP(=O)(O)OC[C@H]3O[C@@H](n4cnc5c(N)ncnc54)[C@H](O)[C@@H]3O)[C@@H](O)[C@H]2O)C=CC1` [NADH], the Kd is reported as 2.5 ± 0.5 µM.
`NC(=O)C1=CN([C@@H]2O[C@H](COP(=O)(O)OP(=O)(O)OC[C@H]3O[C@@H](n4cnc5c(N)ncnc54)[C@H](OP(=O)(O)O)[C@@H]3O)[C@@H](O)[C@H]2O)C=CC1` [NADPH] was tested, and the Kd was 4.8 ± 0.6 µM.
Compound `O=C(O)c1cccc(C(=O)O)n1` [2,6-PDC, 2,6-pyridine dicarboxylic acid] has a Kd of 21.2 ± 0.7 µM.
